According to patent US12344578B2, “Salt forms of bempedoic acid and methods for using the same” (Esperion Therapeutics, Inc., priority 2019, dated 2025):
One block for each molecule: values may come before it.

Test: Thermogravimetric analysis (TGA), weight loss on heating
Assay type: physicochemical
Experimental: Thermogravimetric analysis (TGA) data for the crystalline form of the compound of formula (V) were collected using a TA Discovery 550 TGA instrument. The TGA instrument was calibrated using a nickel reference standard. Samples of the crystalline form of the compound of formula (V) were placed in open platinum sample pans and heated at a rate of 10° C./minute from about ambient temperature (˜25° C.) to about 315° C.
TGA data were collected using a TA Discovery 550 TGA instrument. The TGA instrument was calibrated using a nickel reference standard. Samples were placed in open platinum sample pans and heated at a rate of 10° C./minute from about ambient temperature (˜25° C.) to about 315° C.

- TGA weight loss (up to 86.9° C.): 2.23%
Structure (SMILES): CC(C)(CCCCCC(O)CCCCCC(C)(C)C(=O)[O-])C(=O)[O-].[Ca+2] [Crystalline Form B of the calcium salt]

- TGA weight loss prior to decomposition (heated at 10° C./minute from ~25° C. to about 315° C.): negligible weight loss
Structure (SMILES): CC(C)(CCCCCC(O)CCCCCC(C)(C)C(=O)O)C(=O)O [8-hydroxy-2,2,14,14-tetramethylpentadecanedioic acid]

- TGA weight loss (up to 62.8° C.): Negligible weight loss
Structure (SMILES): CC(C)(CCCCCC(O)CCCCCC(C)(C)C(=O)[O-])C(=O)[O-].[Ca+2] [Crystalline Form A of the calcium salt]
